According to article PMC5352362, “Molecular and functional evaluation of a novel HIF inhibitor, benzopyranyl 1,2,3-triazole compound” (Oncotarget, 2016):

Columns and labels:
HUVECs = experiment: BrdU cell proliferation assay, VEGF-induced; assay type: cell-based, human; conditions: VEGF 20 ng/mL
Protocol: (§1) Figure 5 Compound 12 suppressed HIF-1α target gene expression, and confirmation of in vitro results via determination of effects on angiogenesis in vivo (A) A549 cells were treated with Compound 12 (at concentrations of 0 nM, 1 nM, 10 nM, and 100 nM) for 16 h. The mRNA levels of HIF-1α target genes were determined by semiquantitative RT-PCR. β-actin was used as an internal control. D. DMSO vehicle control. N, normoxia; H, hypoxia. (B) A549 cells were treated with serum-reduced culture media containing Compound 12 (at concentrations of 0 nM, 10 nM, and 100 nM) for 16 h. Media supernatant was collected, and secreted VEGF was determined by ELISA after removal of cellular debris. N, normoxia; H, hypoxia. **P < 0.01 versus hypoxia (H) DMSO (D)-treated control. (C) HUVECs were treated with Compound 12, at the indicated concentrations, in the presence of VEGF (20 ng/mL) for 24 h in 1% serum-containing media. […] Cells that migrated through the membrane (8 μm pore size) were stained with hematoxylin and eosin, pictured as shown in upper panel, and counted (graph). *P < 0.05, **P < 0.01 versus VEGF-treated control. […] (F) Compound 12 (0.1 μg and 1 μg dosages) and retinoic acid (RA, positive control) were applied to the ED 4.5 CAM for two days, neovessel formation from the large vessels was observed, and percentages of positive angiogenic eggs (from total eggs tested) were calculated. […]

[1] = system: chick chorioallantoic membrane angiogenesis; experiment: Chick embryo chorioallantoic membrane (CAM) assay; assay type: in vivo; conditions: applied to ED 4.5 CAM for two days; Compound 12 0.1 μg and 1 μg
Protocol: as §1

[2] = system: angiogenesis (hemoglobin content of Matrigel plug); experiment: Matrigel plug assay in C57BL/6J mice; assay type: in vivo, mouse; conditions: Compound 12 100 nM, gefitinib 5 μM in Matrigel, 10 days
Protocol: HIF-1α is synthesized by growth factor signaling pathways, such as those of EGFR [30] [31]. Inhibition of HIF-1α in its pathways of synthesis, as well as in its pathway of degradation, would seem to make for a more efficient anti-cancer/anti-angiogenesis treatment. To confirm this, we performed a tumor allogaft experiment using Lewis lung carcinoma (LLC) cells. 1 × 10^6 LLC cells were inoculated into the mouse flank subcutaneously (s.c.), and treatment with Compound 12 (5 mg/kg) and/or gefitinib (an EGFR inhibitor, 50 mg/kg), via intraperitoneal (i.p.) administration, was performed every other day for 20 days. […] To confirm the effect of Compound 12 on angiogenesis, we analyzed angiogenesis using the Matrigel plug assay. […]
Figure 6 Compound 12 suppressed allogaft tumor growth and enhanced the effects of a chemotherapeutic agent (A, B) Lewis lung carcinoma cells were inoculated into flanks of C57BL/6J mice (Day 0). […] Tumor size (A) and tumor weight (B) were measured three times a week and on the final day, respectively. […] The content of hemoglobin was quantified and graphed. (D) Tumor tissue sections (10 μm) indicated were stained with H&E and immunostained with anti-CD31 antibody to detect microvessel density; CD31+ cell percentages were then calculated and graphed. […] (F) Images and quantitative comparisons (graph) for Ki67+ proliferating cells in tumor center regions are shown. […]

COc1ccc(-c2cn(CC3(C)C=Cc4cc([N+](=O)[O-])ccc4O3)nn2)cc1 (stereo not drawn) [Compound 12, 4-(4-methoxyphenyl)-1-((2-methyl-6-nitro-2H-chromen-2-yl)methyl)-1H-1,2,3-triazole]
VEGF-induced endothelial cell proliferation (BrdU) (HUVECs): significantly inhibited VEGF-induced proliferation | CAM angiogenesis [1]: significantly suppressed CAM angiogenesis, in a dose-dependent manner | anti-angiogenic activity, Matrigel plug (hemoglobin content) [2]: anti-angiogenic activity was increased
